Assay results as given in paper PMC4414788 (Chemico-biological interactions, 2015).

Experiments:
[1] = biological target: T1, ALDH2 (Homo sapiens, UniProt P05091); test: propionaldehyde dehydrogenase assay; type: biochemical; settings: read-out: ALDH2
T1 sequence (P05091 18-517): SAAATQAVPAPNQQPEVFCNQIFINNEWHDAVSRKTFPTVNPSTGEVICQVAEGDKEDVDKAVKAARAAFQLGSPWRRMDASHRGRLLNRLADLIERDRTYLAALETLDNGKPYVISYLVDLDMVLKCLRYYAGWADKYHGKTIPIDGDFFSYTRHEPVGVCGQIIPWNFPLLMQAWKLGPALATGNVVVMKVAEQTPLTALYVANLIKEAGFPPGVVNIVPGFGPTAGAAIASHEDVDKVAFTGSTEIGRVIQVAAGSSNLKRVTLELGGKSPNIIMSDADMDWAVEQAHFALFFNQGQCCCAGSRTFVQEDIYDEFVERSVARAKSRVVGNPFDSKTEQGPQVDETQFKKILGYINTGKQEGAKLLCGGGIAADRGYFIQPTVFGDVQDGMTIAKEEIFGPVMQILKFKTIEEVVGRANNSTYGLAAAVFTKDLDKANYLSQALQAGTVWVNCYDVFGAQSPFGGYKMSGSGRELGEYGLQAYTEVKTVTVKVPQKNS

[2] = biological target: T2, ALDH1A1 (Homo sapiens, UniProt P00352, N121S); test: propionaldehyde dehydrogenase assay; type: biochemical; settings: read-out: ALDH1A1 ^*
T2 sequence (P00352 2-501 N121S): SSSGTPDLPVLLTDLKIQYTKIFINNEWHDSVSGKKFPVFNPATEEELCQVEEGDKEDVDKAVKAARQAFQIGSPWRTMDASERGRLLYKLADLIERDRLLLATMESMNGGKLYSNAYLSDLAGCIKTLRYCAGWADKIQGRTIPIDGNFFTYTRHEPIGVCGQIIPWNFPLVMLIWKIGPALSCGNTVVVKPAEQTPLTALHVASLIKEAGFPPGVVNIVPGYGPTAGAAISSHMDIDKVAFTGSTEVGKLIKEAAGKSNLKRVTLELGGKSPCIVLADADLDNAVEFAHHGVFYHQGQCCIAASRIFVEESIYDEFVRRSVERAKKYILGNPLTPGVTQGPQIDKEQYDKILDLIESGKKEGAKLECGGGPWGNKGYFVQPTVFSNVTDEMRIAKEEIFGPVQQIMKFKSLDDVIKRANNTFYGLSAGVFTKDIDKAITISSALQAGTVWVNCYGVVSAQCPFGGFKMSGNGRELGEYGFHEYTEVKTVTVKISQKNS

[3] = biological target: T3, ALDH3A1 (Homo sapiens, UniProt P30838); test: biochemical; settings: read-out: % of control remaining
T3 sequence (P30838 1-453): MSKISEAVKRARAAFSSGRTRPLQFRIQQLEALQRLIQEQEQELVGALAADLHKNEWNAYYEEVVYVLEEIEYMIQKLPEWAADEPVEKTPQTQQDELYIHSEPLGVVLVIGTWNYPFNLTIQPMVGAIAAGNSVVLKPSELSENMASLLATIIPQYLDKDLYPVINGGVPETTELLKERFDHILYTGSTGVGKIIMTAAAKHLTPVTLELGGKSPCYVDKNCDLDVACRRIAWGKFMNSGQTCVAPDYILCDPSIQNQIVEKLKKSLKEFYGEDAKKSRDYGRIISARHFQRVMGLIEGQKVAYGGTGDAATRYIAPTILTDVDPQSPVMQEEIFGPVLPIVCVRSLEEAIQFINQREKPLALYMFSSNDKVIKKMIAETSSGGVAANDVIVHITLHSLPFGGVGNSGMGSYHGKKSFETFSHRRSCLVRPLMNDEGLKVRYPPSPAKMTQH

[4] = biological target: T4, ALDH1A3 (Homo sapiens, UniProt P47895); test: propionaldehyde dehydrogenase assay; type: biochemical; settings: read-out: % inhibition at 10 μM
T4 sequence (P47895 2-512): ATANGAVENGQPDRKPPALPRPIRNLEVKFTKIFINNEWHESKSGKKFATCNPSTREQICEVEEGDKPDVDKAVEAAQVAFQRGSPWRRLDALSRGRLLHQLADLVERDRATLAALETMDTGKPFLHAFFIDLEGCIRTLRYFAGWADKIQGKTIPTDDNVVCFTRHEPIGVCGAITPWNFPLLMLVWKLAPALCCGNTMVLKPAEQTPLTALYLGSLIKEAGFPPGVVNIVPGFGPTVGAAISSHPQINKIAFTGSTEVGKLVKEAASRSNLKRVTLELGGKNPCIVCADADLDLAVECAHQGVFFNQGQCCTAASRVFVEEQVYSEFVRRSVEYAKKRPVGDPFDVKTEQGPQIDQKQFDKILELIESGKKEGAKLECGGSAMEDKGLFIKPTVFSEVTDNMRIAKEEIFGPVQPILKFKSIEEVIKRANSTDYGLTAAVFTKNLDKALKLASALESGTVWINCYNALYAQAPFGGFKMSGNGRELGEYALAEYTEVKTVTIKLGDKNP

[5] = biological target: T5, ALDH1A2 (Homo sapiens, UniProt O94788); test: propionaldehyde dehydrogenase assay; type: biochemical; settings: read-out: % inhibition at 10 μM
T5 sequence (O94788 1-518): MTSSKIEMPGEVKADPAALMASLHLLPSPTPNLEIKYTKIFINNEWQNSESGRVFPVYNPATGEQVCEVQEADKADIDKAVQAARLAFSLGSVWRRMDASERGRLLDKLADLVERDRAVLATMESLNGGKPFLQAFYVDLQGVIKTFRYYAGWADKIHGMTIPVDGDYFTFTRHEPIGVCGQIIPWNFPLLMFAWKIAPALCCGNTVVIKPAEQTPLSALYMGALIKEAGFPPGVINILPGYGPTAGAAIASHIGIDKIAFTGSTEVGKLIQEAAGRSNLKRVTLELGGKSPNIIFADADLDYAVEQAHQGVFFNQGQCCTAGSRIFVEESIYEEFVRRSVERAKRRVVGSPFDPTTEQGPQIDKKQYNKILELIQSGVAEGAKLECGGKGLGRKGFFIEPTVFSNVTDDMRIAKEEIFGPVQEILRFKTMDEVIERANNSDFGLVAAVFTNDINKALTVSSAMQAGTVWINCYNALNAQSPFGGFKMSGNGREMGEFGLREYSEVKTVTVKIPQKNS

[6] = biological target: T6, ALDH1B1 (Homo sapiens, UniProt P30837); test: propionaldehyde dehydrogenase assay; type: biochemical; settings: read-out: % inhibition at 10 μM
T6 sequence (P30837 18-517): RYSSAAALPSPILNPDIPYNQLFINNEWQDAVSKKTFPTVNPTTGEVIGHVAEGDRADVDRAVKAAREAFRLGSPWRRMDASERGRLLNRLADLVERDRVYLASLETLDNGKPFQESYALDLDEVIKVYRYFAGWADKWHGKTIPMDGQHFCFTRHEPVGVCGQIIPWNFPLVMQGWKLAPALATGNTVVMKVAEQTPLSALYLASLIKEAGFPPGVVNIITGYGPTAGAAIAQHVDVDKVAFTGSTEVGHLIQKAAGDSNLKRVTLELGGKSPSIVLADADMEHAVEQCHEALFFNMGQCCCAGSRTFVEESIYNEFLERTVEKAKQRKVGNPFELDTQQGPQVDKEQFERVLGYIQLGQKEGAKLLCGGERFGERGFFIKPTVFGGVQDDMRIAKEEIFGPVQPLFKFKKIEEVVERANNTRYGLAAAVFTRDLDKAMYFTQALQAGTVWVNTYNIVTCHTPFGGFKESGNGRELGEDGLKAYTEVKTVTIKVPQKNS

[7] = biological target: T2, ALDH1A1; test: biochemical; settings: read-out: % of control remaining

activity at 10 µM [1]	remaining activity at 10 µM [3]	remaining activity at 10 µM [7]	Structure (SMILES)	activity at 10 µM [2]	inhibition at 10 µM [4]	inhibition at 10 µM [5]	inhibition at 10 µM [6]
10.3%	–	–	COC(=O)C(C)Oc1ccc2c(C)cc(=O)oc2c1 (centres unmarked) [2BS4, methyl-2-[(4-methyl-2-oxo-2H-chromen-7-yl)oxy]propanoate]	–	–	–	–
7.6%	87.6%	–	CCCc1c(C)c2cc3c(C)coc3cc2oc1=O [2CB5, 3,5-dimethyl-6-propylfuro[3,2-g]chromen-7-one]	58.6%	–	–	–
–	87.8%	89.3%	Cc1oc2cc3oc(=O)c(C)c(C)c3cc2c1C [2P4, 2,3,5,6-tetramethylfuro[3,2-g]chromen-7-one]	–	–	–	–

Structure (SMILES)	activity at 10 µM [1]	remaining activity at 10 µM [3]	remaining activity at 10 µM [7]	activity at 10 µM [2]	inhibition at 10 µM [4]	inhibition at 10 µM [5]	inhibition at 10 µM [6]
CCCc1c(C)c2cc3c(C)c(C)oc3cc2oc1=O [2P3, 2,3,5-trimethyl-6-propyl-7H-furo[3,2-g]chromen-7-one]	1.5%	–	–	40.8%	> 60%	> 60%	> 60%
